Measured values: patent US11400389B2, “Marsdenia cundurango creeper extracts, cosmetic compositions comprising them and cosmetic uses of same” (ISP Investments LLC, priority 2017, dated 2022)
No end group written: not given here.

Columns and labels:
LAMP2 = test: Expression of the LAMP2 autophagy marker in skin biopsies with or without multi-toxin (cigarette smoke) stress; format: cell-based; details: human skin biopsies, extract 1% in a cream, EGCG 200 μg/ml
Protocol: The objective of this study was to observe the effect of treatment by condurango on skin biopsies previously subjected to multi-toxin stress, brought about by incubating the biopsies with cigarette smoke.
The selected marker is the lysosomal membrane protein LAMP2A, which is involved in the process of autophagy, one of the main pathways of degradation of cellular waste.
Human skin biopsies in culture were placed in a sealed chamber saturated with cigarette smoke for 30 minutes. This stress was referred to as multi-toxic stress due to the cigarette smoke being composed of toxic molecules from different classes. After the stress, the biopsies were placed in culture and treated by the condurango extract obtained from example 4 and formulated to 1% (mass/mass) in a cream, as in example 5. […]
At the end of this incubation, the protein LAMP2 was detected by immunomarking on skin biopsy sections.
This technique was performed on paraffin skin sections incubated in the presence of the anti-LAMP2 antibody (rabbit polyclonal antibody, Abcam) After 1 hour of incubation followed by rinsings, the sections were incubated in the presence of secondary anti-rabbit antibody coupled with a fluorophore (Alexa Fluor® 488, Invitrogen). The sections were then examined under epi-fluorescence microscope (Zeiss Axiovert 200M microscope). The expression of LAMP2 was then observed and quantified at epidermis level.

interleukin-6 (IL-6) = test: Salting-out of interleukin-6 by skin biopsies subjected to stress by substance P (ELISA); format: cell-based, human; details: substance P 10^−6 M in culture medium, 48 hours, extract 1% in a cream where applied
Description: The objective of this experiment was to study the effect of the condurango extract on skin biopsies subjected to a stress by the substance P. The substance P was the central mediator of neurogenic inflammation (inflammation mediated via the peripheral nervous system). The neuropeptide is involved in various processes, including acute or chronic inflammation, and the perception of pain or nociception. The effect of the stress, whether or not brought about in the presence of the condurango extract, was studied by measuring the salting-out of interleukin-6 (IL-6), a cytokine synthesised by skin cells and considered to be a nociceptive inflammation mediator (O'Donovan A et al. Clinical anxiety, cortisol and interleukin-6: evidence for specificity in emotion-biology relationships. Brain Behav Immun. 2010 October; 24(7):1074-7).
Skin biopsies in culture were treated with the condurango extract obtained from example 4, formulated to 1% in a cream, as in example 5, with or without addition of substance P at 10^−6 M in the culture medium.
After 48 hours of incubation, the culture medium of the biopsies was collected and the level of IL-6 was measured by ELISA.

Compound | increase of LAMP2 after multi-toxic stress (LAMP2; cigarette smoke 30 minutes then treatment) | rise in the marking intensity of LAMP2, in the absence of stress (LAMP2; no stress, 48 hours) | level of IL-6 compared to the non-stressed control (interleukin-6 (IL-6))
O=C(O[C@@H]1Cc2c(O)cc(O)cc2O[C@@H]1c1cc(O)c(O)c(O)c1)c1cc(O)c(O)c(O)c1 [EGCG, epigallocatechin gallate] | +26% | +27% | –
substance P: neuropeptide, central mediator of neurogenic inflammation, used as stressor (RPKPQQFFGLM; ends and bridges not checked; UniProt P20366 58-68, looked up) | – | – | +68%
